The record followed here is ChEMBL document CHEMBL1212792, “Comparative pharmacokinetics of ceftaroline in rats, rabbits, and monkeys following a single intravenous or intramuscular injection” (Antimicrob Agents Chemother, 2010).

For orientation: MIC90 means the lowest concentration that inhibits either 90% of growth or 90% of the strains tested, depending on the study. Higher therefore signals lower susceptibility. What is called MIC is the lowest concentration found to suppress growth. High values mean weaker potency, low ones greater potency.

Experiment [1] is described as follows: %T>MIC in gram negative bacteria-infected neutropenic mouse model. It is filed as functional.
A short description of experiment [2]: %T>MIC in Staphylococcus aureus-infected neutropenic mouse model. It is filed as functional.
The test system of experiment [3] is Staphylococcus. Briefly: Antibacterial activity against Staphylococcus. In kind it is functional.
Experiment [4] has as its system Staphylococcus. Briefly: Antibacterial activity against Staphylococcus infected in human. It is filed as functional.
The nature of experiment [5]: %T>MIC in rabbit endocarditis model at 20 mg/kg, im administered as single dose measured after 8 hrs. In kind it is functional. The following applies: route intramuscular.
Experiment [6] can be described thus: %T>MIC human infected with Staphylococcus at 600 mg. im administered every 12 hrs. The following applies: route intramuscular.
Experiment [7] can be described thus: %T>MIC in rabbit endocarditis model at 20 mg/kg, im administered as single dose measured after 12 hrs. It is filed as functional. The following applies: route intramuscular.
In another experiment the test system is Streptococcus pneumoniae. Briefly: Antibacterial activity against Streptococcus pneumoniae. In kind it is functional.
Experiment [8] can be described thus: %T>MIC in Streptococcus pneumoniae-infected neutropenic mouse model. In kind it is functional.

≈ marks a conversion by molar mass, not a printed value.

For the molecule `CCO/N=C(\C(=O)N[C@@H]1C(=O)N2C(C(=O)[O-])=C(Sc3nc(-c4cc[n+](C)cc4)cs3)CS[C@H]12)c1nsc(NP(=O)(O)O)n1` [CEFTAROLINE FOSAMIL], the “fT>MIC” value is reported as 32% in [1]; 26% in [2]; 46.3% in experiment [5]; 64.65% in [6]; 30.9% in experiment [7]; 39% in experiment [8]. Besides, the MIC90 with Staphylococcus [3] and in the experiment with Streptococcus pneumoniae was no more than 2 µg/mL throughout. The MIC in the experiment with Staphylococcus [4] is 0.12 µg/mL (≈ 0.175 µM).
